system: GM1 production in Jurkat cells; assay: cells; assay type: cell-based; conditions: not given

| Compound | IC50 |
| --- | --- |
| COc1cc2c(cc1-c1ccc(CC(C)C)cc1)CC(C)(C)C2NC(=O)O[C@@H]1CN2CCC1CC2 (stereo partly drawn) [Example 315, (S)-quinuclidin-3-yl (5-(4-isobutylphenyl)-6-methoxy-2,2-dimethyl-2,3-dihydro-1H-inden-1-yl)carbamate] | 11.3 nM |

same assay, conditions: Homo sapiens, Jurkat, 72 h

| Compound | IC50 |
| --- | --- |
| CCC1(CC)Cc2cc(-c3ccc(C(C)C)cc3)ccc2C1NC(=O)O[C@@H]1CN2CCC1CC2 (stereo partly drawn) [Example 282, (S)-quinuclidin-3-yl (2,2-diethyl-5-(4-isopropylphenyl)-2,3-dihydro-1H-inden-1-yl)carbamate] | 5.6 nM |
| CCC1(CC)Cc2cc(-c3ccc(OC)cc3)ccc2C1NC(=O)O[C@@H]1CN2CCC1CC2 (stereo partly drawn) [Example 283, (S)-quinuclidin-3-yl (2,2-diethyl-5-(4-methoxyphenyl)-2,3-dihydro-1H-inden-1-yl)carbamate] | 17.2 nM |
| CCOc1ccc(-c2ccc3c(c2)CC(CC)(CC)C3NC(=O)O[C@@H]2CN3CCC2CC3)cc1 (stereo partly drawn) [Example 284, (S)-quinuclidin-3-yl (5-(4-ethoxyphenyl)-2,2-diethyl-2,3-dihydro-1H-inden-1-yl)carbamate] | 8.5 nM |
| CCCOc1ccc(-c2ccc3c(c2)CC(CC)(CC)C3NC(=O)O[C@@H]2CN3CCC2CC3)cc1 (stereo partly drawn) [Example 285, (S)-quinuclidin-3-yl (2,2-diethyl-5-(4-propoxyphenyl)-2,3-dihydro-1H-inden-1-yl)carbamate] | 3.7 nM |
| CCC1(CC)Cc2cc(-c3ccc(OC(C)C)cc3)ccc2C1NC(=O)O[C@@H]1CN2CCC1CC2 (stereo partly drawn) [Example 286, (S)-quinuclidin-3-yl (2,2-diethyl-5-(4-isopropoxyphenyl)-2,3-dihydro-1H-inden-1-yl)carbamate] | 4.1 nM |
| CCC1(CC)Cc2cc(-c3ccc(CC(C)C)cc3)ccc2C1NC(=O)O[C@@H]1CN2CCC1CC2 (stereo partly drawn) [Example 287, (S)-quinuclidin-3-yl (2,2-diethyl-5-(4-isobutylphenyl)-2,3-dihydro-1H-inden-1-yl)carbamate] | 4.1 nM |
| CCC1(CC)Cc2cc(-c3cccc(F)c3)ccc2C1NC(=O)O[C@@H]1CN2CCC1CC2 (stereo partly drawn) [Example 288, (S)-quinuclidin-3-yl (2,2-diethyl-5-(3-fluorophenyl)-2,3-dihydro-1H-inden-1-yl)carbamate] | 11.2 nM |
| CCC1(CC)Cc2cc(-c3cccc(OC)c3)ccc2C1NC(=O)O[C@@H]1CN2CCC1CC2 (stereo partly drawn) [Example 289, (S)-quinuclidin-3-yl (2,2-diethyl-5-(3-methoxyphenyl)-2,3-dihydro-1H-inden-1-yl)carbamate] | 7.4 nM |
| CCOc1cccc(-c2ccc3c(c2)CC(CC)(CC)C3NC(=O)O[C@@H]2CN3CCC2CC3)c1 (stereo partly drawn) [Example 290, (S)-quinuclidin-3-yl (5-(3-ethoxyphenyl)-2,2-diethyl-2,3-dihydro-1H-inden-1-yl)carbamate] | 12.3 nM |
| CCC1(CC)Cc2cc(-c3cccc(OC(C)C)c3)ccc2C1NC(=O)O[C@@H]1CN2CCC1CC2 (stereo partly drawn) [Example 291, (S)-quinuclidin-3-yl (2,2-diethyl-5-(3-isopropoxyphenyl)-2,3-dihydro-1H-inden-1-yl)carbamate] | 13.5 nM |
| CCc1cccc(-c2ccc3c(c2)CC(CC)(CC)C3NC(=O)O[C@@H]2CN3CCC2CC3)c1 (stereo partly drawn) [Example 292, (S)-quinuclidin-3-yl (2,2-diethyl-5-(3-ethylphenyl)-2,3-dihydro-1H-inden-1-yl)carbamate] | 7.8 nM |
| CCC1(CC)Cc2cc(-c3cccc(C(C)C)c3)ccc2C1NC(=O)O[C@@H]1CN2CCC1CC2 (stereo partly drawn) [Example 293, (S)-quinuclidin-3-yl (2,2-diethyl-5-(3-isopropylphenyl)-2,3-dihydro-1H-inden-1-yl)carbamate] | 8.7 nM |
| CCC1(CC)Cc2cc(-c3cccc(C(C)(C)C)c3)ccc2C1NC(=O)O[C@@H]1CN2CCC1CC2 (stereo partly drawn) [Example 294, (S)-quinuclidin-3-yl (5-(3-(tert-butyl)phenyl)-2,2-diethyl-2,3-dihydro-1H-inden-1-yl)carbamate] | 10.4 nM |
| CCC1(CC)Cc2cc(-c3cccc(OC)c3OC)ccc2C1NC(=O)O[C@@H]1CN2CCC1CC2 (stereo partly drawn) [Example 295, (S)-quinuclidin-3-yl (5-(2,3-dimethoxyphenyl)-2,2-diethyl-2,3-dihydro-1H-inden-1-yl)carbamate] | 35 nM |
| CCC1(CC)Cc2cc(-c3ccc(OC)cc3OC)ccc2C1NC(=O)O[C@@H]1CN2CCC1CC2 (stereo partly drawn) [Example 296, (S)-quinuclidin-3-yl (5-(2,4-dimethoxyphenyl)-2,2-diethyl-2,3-dihydro-1H-inden-1-yl)carbamate] | 15.6 nM |
| CCC1(CC)Cc2cc(-c3cc(OC)ccc3OC)ccc2C1NC(=O)O[C@@H]1CN2CCC1CC2 (stereo partly drawn) [Example 297, (S)-quinuclidin-3-yl (5-(2,5-dimethoxyphenyl)-2,2-diethyl-2,3-dihydro-1H-inden-1-yl)carbamate] | 3 nM |
| CCC1(CC)Cc2cc(-c3ccc(OC)c(OC)c3)ccc2C1NC(=O)O[C@@H]1CN2CCC1CC2 (stereo partly drawn) [Example 298, (S)-quinuclidin-3-yl (5-(3,4-dimethoxyphenyl)-2,2-diethyl-2,3-dihydro-1H-inden-1-yl)carbamate] | 63.2 nM |

| Compound | IC50 |
| --- | --- |
| CCC1(CC)Cc2cc(-c3cc(OC)cc(OC)c3)ccc2C1NC(=O)O[C@@H]1CN2CCC1CC2 (stereo partly drawn) [Example 299, (S)-quinuclidin-3-yl (5-(3,5-dimethoxyphenyl)-2,2-diethyl-2,3-dihydro-1H-inden-1-yl)carbamate] | 25.3 nM |
| CCC1(CC)Cc2cc(-c3c(OC)cccc3OC)ccc2C1NC(=O)O[C@@H]1CN2CCC1CC2 (stereo partly drawn) [Example 300, (S)-quinuclidin-3-yl (5-(2,6-dimethoxyphenyl)-2,2-diethyl-2,3-dihydro-1H-inden-1-yl)carbamate] | 23 nM |
| CCC1(CC)Cc2cc(-c3cccc(C(F)F)c3)ccc2C1NC(=O)O[C@@H]1CN2CCC1CC2 (stereo partly drawn) [Example 301, (S)-quinuclidin-3-yl (5-(3-(difluoromethyl)phenyl)-2,2-diethyl-2,3-dihydro-1H-inden-1-yl)carbamate] | 9.6 nM |
| CCC1(CC)Cc2cc(-c3cccc(N(C)C)c3)ccc2C1NC(=O)O[C@@H]1CN2CCC1CC2 (stereo partly drawn) [Example 302, (S)-quinuclidin-3-yl (5-(3-(dimethylamino)phenyl)-2,2-diethyl-2,3-dihydro-1H-inden-1-yl)carbamate] | 4 nM |
| CCOc1c(C)cc(-c2ccc3c(c2)CC(CC)(CC)C3NC(=O)O[C@@H]2CN3CCC2CC3)cc1C (stereo partly drawn) [Example 303, (S)-quinuclidin-3-yl (5-(4-ethoxy-3,5-dimethylphenyl)-2,2-diethyl-2,3-dihydro-1H-inden-1-yl)carbamate] | 27.2 nM |
| CCCCOc1c(C)cc(-c2ccc3c(c2)CC(CC)(CC)C3NC(=O)O[C@@H]2CN3CCC2CC3)cc1C (stereo partly drawn) [Example 305, (S)-quinuclidin-3-yl (5-(4-butoxy-3,5-dimethylphenyl)-2,2-diethyl-2,3-dihydro-1H-inden-1-yl)carbamate] | 9.8 nM |
| CCC1(CC)Cc2cc(-c3ccsc3)ccc2C1NC(=O)O[C@@H]1CN2CCC1CC2 (stereo partly drawn) [Example 306, (S)-quinuclidin-3-yl (2,2-diethyl-5-(thiophen-3-yl)-2,3-dihydro-1H-inden-1-yl)carbamate] | 27.5 nM |
| CCC1(CC)Cc2cc(-c3ccoc3)ccc2C1NC(=O)O[C@@H]1CN2CCC1CC2 (stereo partly drawn) [Example 307, (S)-quinuclidin-3-yl (2,2-diethyl-5-(furan-3-yl)-2,3-dihydro-1H-inden-1-yl)carbamate] | 30.2 nM |
| CCC1(CC)Cc2cc(-c3ccc(OCC4CC4)nc3)ccc2C1NC(=O)O[C@@H]1CN2CCC1CC2 (stereo partly drawn) [Example 308, (S)-quinuclidin-3-yl (5-(6-(cyclopropylmethoxy)pyridin-3-yl)-2,2-diethyl-2,3-dihydro-1H-inden-1-yl)carbamate] | 5.5 nM |
| CCC1(CC)Cc2cc(-c3ccc4c(c3)OC(F)(F)O4)ccc2C1NC(=O)O[C@@H]1CN2CCC1CC2 (stereo partly drawn) [Example 309, (S)-quinuclidin-3-yl (5-(2,2-difluorobenzo[d][1,3]dioxol-5-yl)-2,2-diethyl-2,3-dihydro-1H-inden-1-yl)carbamate] | 11.2 nM |
| CCC1(CC)Cc2cc(-c3ccc(OC)cc3F)ccc2C1NC(=O)O[C@@H]1CN2CCC1CC2 (stereo partly drawn) [Example 310, (S)-quinuclidin-3-yl (2,2-diethyl-5-(2-fluoro-4-methoxyphenyl)-2,3-dihydro-1H-inden-1-yl)carbamate] | 16.3 nM |
| CCC1(CC)Cc2cc(-c3ccc(OC(C)C)c(Cl)c3)ccc2C1NC(=O)O[C@@H]1CN2CCC1CC2 (stereo partly drawn) [Example 311, (S)-quinuclidin-3-yl (5-(3-chloro-4-isopropoxyphenyl)-2,2-diethyl-2,3-dihydro-1H-inden-1-yl)carbamate] | 27 nM |
| CCc1ccc(-c2cc3c(cc2OC)C(NC(=O)O[C@@H]2CN4CCC2CC4)C(C)(C)C3)cc1 (stereo partly drawn) [Example 312, (S)-quinuclidin-3-yl (5-(4-ethylphenyl)-6-methoxy-2,2-dimethyl-2,3-dihydro-1H-inden-1-yl)carbamate] | 13.1 nM |
| CCCc1ccc(-c2cc3c(cc2OC)C(NC(=O)O[C@@H]2CN4CCC2CC4)C(C)(C)C3)cc1 (stereo partly drawn) [Example 313, (S)-quinuclidin-3-yl (6-methoxy-2,2-dimethyl-5-(4-propylphenyl)-2,3-dihydro-1H-inden-1-yl)carbamate] | 7.3 nM |
| COc1cc2c(cc1-c1ccc(C(C)C)cc1)CC(C)(C)C2NC(=O)O[C@@H]1CN2CCC1CC2 (stereo partly drawn) [Example 314, (S)-quinuclidin-3-yl (5-(4-isopropylphenyl)-6-methoxy-2,2-dimethyl-2,3-dihydro-1H-inden-1-yl)carbamate] | 7.7 nM |
| COc1cc2c(cc1-c1ccc(C(C)(C)C)cc1)CC(C)(C)C2NC(=O)O[C@@H]1CN2CCC1CC2 (stereo partly drawn) [Example 316, (S)-quinuclidin-3-yl (5-(4-(tert-butyl)phenyl)-6-methoxy-2,2-dimethyl-2,3-dihydro-1H-inden-1-yl)carbamate] | 13.3 nM |
| COc1cc2c(cc1-c1ccc(C3CC3)cc1)CC(C)(C)C2NC(=O)O[C@@H]1CN2CCC1CC2 (stereo partly drawn) [Example 317, (S)-quinuclidin-3-yl (5-(4-cyclopropylphenyl)-6-methoxy-2,2-dimethyl-2,3-dihydro-1H-inden-1-yl)carbamate] | 10.3 nM |

same assay, conditions: read-out: IC50

| Compound | IC50 |
| --- | --- |
| CCCOc1c(C)cc(-c2ccc3c(c2)CC(CC)(CC)C3NC(=O)O[C@@H]2CN3CCC2CC3)cc1C (stereo partly drawn) [Example 304, (S)-quinuclidin-3-yl (5-(3,5-dimethyl-4-propoxyphenyl)-2,2-diethyl-2,3-dihydro-1H-inden-1-yl)carbamate] | 23.5 nM |
